The values below are quoted from earlier work in US20070225544A1, “APPARATUSES AND TECHNIQUES FOR BIOACTIVE DRUG DELIVERY IN THE PROSTATE GLAND” (priority 2006, published 2007).

The test system of data set [1] is benign prostatic hypertrophy (BPH). The settings on record: in vivo.

Regarding `CC(=O)OCC(=O)[C@@]1(O)CC[C@H]2[C@@H]3CCC4=CC(=O)CC[C@]4(C)[C@H]3[C@@H](O)C[C@@]21C` [Hydrocortisone acetate], the Duration result (relative duration of action of injectable corticosteroid agent) was “Short”. Further, for the setting “relative potency of injectable corticosteroid agent”, the Potency result is given as “Low”.
In the case of botulinum-toxin, in data set [1], the “decrease in urinary symptoms” value was 30% and the “effective for up to ... in managing BPH” value is “up to 1 year”.
